According to paper PMC7763843, “Cytochrome P450 Expression and Chemical Metabolic Activity before Full Liver Development in Zebrafish” (Pharmaceuticals, 2020):
Structures can show the parent of a compound that is named as a salt. Where two headings read alike, the source gives them in different places.

Tests used:
[1] = cited from earlier work; for Detection of metabolite of midazolam (neither has been detected): adult zebrafish liver microsomes or embryonic or larval microsomes or homogenates at up to 7 dpf
zebrafish = conditions: cited from earlier work
[2] = system: whole zebrafish embryo or larva; assay: Contents of test compound metabolites per whole zebrafish embryo or larva; conditions: for Ce of caffeine per whole embryo or larva: metabolite experiment (Figure 6A), exposure to caffeine 10 mg/L
Protocol: (§3) To calculate the content of each compound per one whole zebrafish embryo or larva (i.e., the Ce), we first determined the maximum test solution concentrations that caused neither morphological nor behavioral abnormalities during exposure. […] Beginning at 5 hpf, normal embryos were exposed to the test solution (>1 mL/embryo) in a glass container. The plastic lid of the container was kept closed, and the embryos and larvae were maintained for up to 120 hpf at 28 ± 1 °C on a 14-h light–10-h dark cycle.
Then, the mixture was centrifuged at 20,000× g for 15 min at 10 °C with a refrigerated centrifuge (CR21N, Hitachi Koki). The supernatant was collected in a sampling tube. The extraction procedure was performed twice. The supernatants of two batches were mixed and the mixture was evaporated completely by nitrogen gas spraying. A solution (500 μL) of the same composition as the eluent for each compound was added to the tube, and then the solution was filtered through a Millex-LG membrane filter with a 0.2-μm pore size (Merck). The filtrate was double diluted with a solution of the same composition as the eluent for each compound, and the resulting solution was mixed to prepare the sample for measurement. For 1,7-dimethylxanthine, to standardize the content of the larval matrix, a mixture of larvae in the control or the vehicle control was added to each standard solution in a stepwise concentration to create each calibration curve.
Each 5 μL sample was eluted in a mobile phase of methanol: water = 2:8 at a flow rate of 0.20 mL/min. 1,7-dimethylxanthine was monitored by using an ESI probe. Data were acquired in positive ion mode by using MRM. […]
A calibration curve for each target substance (regression equation by using the least-squares method: Y = aX + b, where Y is the analytical response and X is the concentration of the target substance) was made by using four or five concentrations of standard solution. […] Then, all target substances were quantified by using the absolute calibration curve method and one concentration of standard solution. […]

cyp2r1 mRNA = system: cyp2r1 mRNA
Protocol: (§1) Embryos were dechorionized, except in the case of those exposed to TCDD due to high transparency. […] 1,7-Dimethylxanthine, 4′-OHDF, 5-OHDF, and 6β-hydroxytestosterone were obtained from Sigma-Aldrich. DMSO was purchased from Nacalai Tesque (Kyoto, Japan).
(§2) Whole-mount in situ hybridization was performed as described previously. Paraformaldehyde-fixed embryos were hybridized with digoxigenin-incorporated antisense RNA probes of CYP subtypes at 65 °C overnight (DIG (digoxigenin) RNA Labeling Kit, Sigma-Aldrich). To obtain the CYP probes, CYP DNAs were amplified by PCR reaction with KOD FX Neo enzyme solution (Toyobo) with the primer sets listed in Table S2. This was followed by subcloning to pTAC2 TA vector (BioDynamics, Tokyo, Japan) and in vitro transcription with SP6 RNA polymerase (New England Biolabs, Ipswich, MA, USA). Following hybridization and washing, the embryos were incubated with anti-DIG antibody conjugated with alkaline phosphatase (Sigma-Aldrich) at 4 °C overnight. The color reaction was performed by incubation in BM Purple substrate or Fast Red (Sigma-Aldrich).

cyp3a65 mRNA = conditions: in vivo
Protocol: as §1, §2

[3] = system: whole zebrafish embryo or larva; assay: Content of test compound per one whole zebrafish embryo or larva (Ce) every 24 hpf; assay type: in vivo, Danio rerio; conditions: mean ± SD, n = 3; for Ce per one whole embryo or larva: 120 hpf, exposure from 5 hpf (caffeine 10 mg/L, diclofenac 3.2 mg/L, testosterone 3.0 mg/L), maximum for caffeine
Protocol: The chorions of embryos were removed with forceps under a microscope before sampling for the Ce measurements. The dechorionated embryos (24 hpf) or the larvae (from 48 hpf onwards) were individually transferred through four beakers (for about 10 s per beaker) containing 500 mL of fresh dechlorinated tap water to remove chemical residues on the body surface. After that step, the embryos or larvae were homogenized with a silicone pestle in a 1.5 mL sampling tube containing a mixed solvent of the same composition as each liquid chromatography eluent to extract the test compound. The dechorionated embryos or the larvae were homogenized to extract the test compound. […] The supernatant was collected in a volumetric flask. The extraction procedure was performed twice, and the supernatants from the two batches were mixed and brought up to a volume of 1 mL with the mixed solvent of the same composition as each liquid chromatography eluent to extract the test compound.
Data were acquired in positive ion mode by using multiple reaction monitoring (MRM).

[4] = system: zebrafish embryos and larvae; assay: Maximum test solution concentration causing neither morphological nor behavioral abnormalities; assay type: in vivo, Danio rerio; conditions: exposure from 5 hpf up to 120 hpf
Protocol: as §3

[5] = parameters: method as in PMID 11448232, PMID 7714751; conditions: cited from earlier work
cyp2n13 mRNA = conditions: 55 hpf larvae; exposure from 30 hpf; 100 µM rifampicin or phenobarbital
Protocol: as §1, §2

cyp2y3 mRNA = conditions: 55 hpf larvae; exposure from 30 hpf; 100 µM rifampicin or phenobarbital
Protocol: as §1, §2

[6] = system: cyp2n13, 2r1, 2y3, and 3a65; assay: qPCR of CYP subtypes in 55 hpf larvae after inducer exposure; conditions: 100 µM
Source text: as §1

[7] = 55 hpf larvae, exposure from 30 hpf, 1.0 ppb TCDD, 100 µM phenobarbital or rifampicin

In the case of `OCc1ncc2n1-c1ccc(Cl)cc1C(c1ccccc1F)=NC2` [1-hydroxymidazolam], the “Detection of metabolite of midazolam (neither has been detected)” value [1] is listed as “Neither”.
For `COc1ccc2c(c1)[C@@]13CCCC[C@H]1[C@@H](C2)NCC3` [3-Methoxymorphinan], the “Detection of metabolite of dextromethorphan” value ([1]; adult zebrafish liver microsomes) is given as “detected”.
For `Cc1ncc2n1-c1ccc(Cl)cc1C(c1ccccc1F)=NC2O` (stereo not drawn) [4-hydroxymidazolam], the “Detection of metabolite of midazolam (neither has been detected)” value [1] is listed as “Neither”.
For `C[C@]12CC[C@H]3[C@@H](C[C@@H](O)C4=CC(=O)CC[C@@]43C)[C@@H]1CC[C@@H]2O` [6β-hydroxytestosterone], the “Detection of metabolite of testosterone” value (zebrafish; zebrafish larvae at 7 dpf or zebrafish adults) is listed as “detected” and the “Detection of metabolite in embryos or larvae” value ([2]; 50 or 120 hpf, during exposure to testosterone) is listed as “not detected”.
In the case of `Clc1cc2c(cc1Cl)Oc1cc(Cl)c(Cl)cc1O2` [TCDD, 2,3,7,8-tetrachlorodibenzo-p-dioxin], the “cyp2r1 mRNA signal by in situ hybridization (location similar to liver)” value (from here on “cyp2r1 mRNA signal”) (cyp2r1 mRNA; [7]) is reported as “Positive signals” and the “cyp3a65 mRNA signal by in situ hybridization” value (cyp3a65 mRNA) is reported as “signal appeared in some”.
In the case of `Cn1c(=O)c2c(ncn2C)n(C)c1=O` [caffeine], the “Ce per one whole embryo or larva” value [3] is given as 4.54 ± 0.10 ng, the “Maximum test solution concentration that caused neither morphological nor behavioral abnormalities during exposure” value [4] is given as 10 mg/L and the “log Kow” value [5] is given as −0.07. For the same molecule, the “Ce of caffeine per whole embryo or larva” value ([2]; 50 hpf) was 2.69 ± 0.14 ng and the “Ce of caffeine per whole embryo or larva” value ([2]; 120 hpf) was 5.15 ± 0.31 ng.
For `COc1ccc2c(c1)[C@]13CCCC[C@@H]1[C@H](C2)N(C)CC3` [dextromethorphan], the “Detection of metabolites of the compound” value ([1]; microsomes from whole embryos or larvae at 5, 24, 48, 72, 96, or 120 hpf) is given as “no metabolites of this compound have been detected”.
In the case of `O=C(O)Cc1ccccc1Nc1c(Cl)cccc1Cl` [diclofenac, diclofenac sodium salt], the “Ce per embryo or larva (maximum value)” value ([3]; 72 hpf, exposure to 3.2 mg/L from 5 hpf) is listed as 1.64 ± 0.15 ng, the “Maximum test solution concentration that caused neither morphological nor behavioral abnormalities during exposure” value [4] is listed as 3.2 mg/L and the “log Kow” value ([5]; pH 7.4) is listed as 1.13.
For `CCOc1ccc(NC(C)=O)cc1` [phenacetin], the “Detection of human CYP1A2-mediated metabolites” value (zebrafish; zebrafish 7 dpf incubated with the drug) is given as “detected”.
For `CCC1(c2ccccc2)C(=O)NC(=O)NC1=O` [phenobarbital], the “cyp2N13 mRNA expression by in situ hybridization” value (cyp2n13 mRNA) was “detected”, the “cyp2r1 mRNA signal” value (cyp2r1 mRNA; in vivo) was “Positive signals” and the “cyp2y3 mRNA by in situ hybridization (liver and intestine locations)” value (cyp2y3 mRNA) was “detectable”.
In the case of `CO[C@H]1/C=C/O[C@@]2(C)Oc3c(C)c(O)c4c(O)c(c(/C=N/N5CCN(C)CC5)c(O)c4c3C2=O)NC(=O)/C(C)=C\C=C\[C@H](C)[C@H](O)[C@@H](C)[C@@H](O)[C@@H](C)[C@H](OC(C)=O)[C@@H]1C` [rifampicin], the “cyp2N13 mRNA expression by in situ hybridization” value (cyp2n13 mRNA) is reported as “detected” and the “cyp2r1 mRNA signal” value (cyp2r1 mRNA; [7]) is reported as “Positive signals”.
In the case of `Nc1c2c(nc3ccccc13)CCCC2` [tacrine], the “Detection of human CYP1A2-mediated metabolites” value (zebrafish; zebrafish, in vivo) is given as “detected”.
In the case of `C[C@]12CC[C@H]3[C@@H](CCC4=CC(=O)CC[C@@]43C)[C@@H]1CC[C@@H]2O` [testosterone], the “Ce per embryo or larva (maximum value)” value ([3]; 48 hpf, exposure to 3.0 mg/L from 5 hpf) is reported as 12.8 ± 1.14 ng, the “Ce per one whole embryo or larva” value [3] is reported as 1.43 ± 0.11 ng and the “Maximum test solution concentration that caused neither morphological nor behavioral abnormalities during exposure” value [4] is reported as 3.0 mg/L.
For `O=c1cc(-c2ccccc2)oc2ccc3ccccc3c12` [β-naphthoflavone], the “Significant induction of cyp2n13, 2r1, 2y3, and 3a65 by qPCR” value [6] was “not recognized”.
